One assay addresses Prothrombin (Homo sapiens, UniProt P00734). As to the kind of experiment: Inhibition of human thrombin using Ac-FVR-AMC as substrate incubated for 10 mins prior to substrate addition measured for 10 min by fluorescence assay.
The test system of a further assay is Plasma. The experiment in a line: Anticoagulant activity in Sprague-Dawley rat plasma assessed as thrombin time at 3 mg/ml administered for 4 days. The assay is classed as functional.
Assay [1] concerns Rattus norvegicus. The experiment in a line: Inhibition of thrombin-induced platelet aggregation in Sprague-Dawley rat at 3 mg/ml administered for 4 days relative to control. It counts as functional.
Assay [2] relates to Rattus norvegicus. As to the kind of experiment: Anticoagulant activity in Sprague-Dawley rat plasma assessed as fibrinogen level at 3 mg/ml administered for 4 days. The assay is classed as functional.
The test system of assay [3] is Rattus norvegicus. The experiment in a line: Inhibition of arterial/venous thromboembolic weight in Sprague-Dawley rat at 3 mg/ml administered for 4 days relative to control. The assay is classed as functional.
Assay [4] relates to Rattus norvegicus. The experiment in a line: Anticoagulant activity in Sprague-Dawley rat plasma assessed as prothrombin time at 3 mg/ml administered for 4 days. The assay is classed as functional.
Assay [5] concerns Rattus norvegicus. The experiment in a line: Anticoagulant activity in Sprague-Dawley rat plasma assessed as activated partial […] time at 3 mg/ml administered for 4 days. The assay is classed as functional.

In turn, `CCn1c(CNc2ccc(C(=N)N)cc2F)nc2cc(C(=O)N(CCC(=O)O)c3cccc(OC)c3)ccc21` gave an IC50 on Prothrombin of 8.4 nM.

`Cn1c(CNc2ccc(C(=N)N)cc2F)nc2cc(C(=O)N(CCC(=O)O)c3ccccc3F)ccc21` gave an IC50 at Prothrombin of 4.93 nM.

Take `CCCCCCOC(=O)/N=C(/N)c1ccc(NCc2nc3cc(C(=O)N(CCC(=O)OCC)c4ccccc4F)ccc3n2C)cc1`: the TT in the assay with Plasma is on record as 180 s. The results for the “inhibition (INH)” value in the assay with Rattus norvegicus [1] and with Rattus norvegicus [3] were 10.4% and 37%, respectively. In addition, the Activity with Rattus norvegicus [2] is reported as 1.853 g/L. The PT in the assay with Rattus norvegicus [4] was 11.82 s. Moreover, in the assay on Rattus norvegicus [5], the APTT amounted to 24.33 s.

For `CCn1c(CNc2ccc(C(=N)N)cc2F)nc2cc(C(=O)N(CCC(=O)O)c3ccccc3OC)ccc21`, on Prothrombin, the IC50 turned out to be 21.6 nM.

On Prothrombin, `CCn1c(CNc2ccc(C(=N)N)cc2F)nc2cc(C(=O)N(CCC(=O)O)c3ccccc3)ccc21` registered an IC50 of 5.63 nM.

In the case of `CCn1c(CNc2ccc(C(=N)N)cc2F)nc2cc(C(=O)N(CCC(=O)O)c3ccc(C)cn3)ccc21`, at Prothrombin, the IC50 was 19.2 nM.

As to `Cn1c(CNc2ccc(C(=N)N)cc2F)nc2cc(C(=O)N(CCC(=O)O)c3cccc(F)c3)ccc21`, at Prothrombin, the 50% inhibitory concentration (IC50) was determined as 4.54 nM.

On to `COc1cccc(N(CCC(=O)O)C(=O)c2ccc3c(c2)nc(CNc2ccc(C(=N)N)cc2F)n3C)c1`, for which inhibition against Prothrombin was half-maximal at 4.84 nM (IC50).

As for `CCn1c(CNc2ccc(C(=N)N)cc2F)nc2cc(C(=O)N(CCC(=O)O)c3ccc(F)cc3)ccc21`, on Prothrombin, the midpoint of inhibition, the IC50, lay at 4.9 nM.

In the case of `Cn1c(CNc2ccc(C(=N)N)cc2F)nc2cc(C(=O)N(CCC(=O)O)c3ccccn3)ccc21`, on Prothrombin, the IC50 was found to be 3.49 nM.

In the case of `CCn1c(CNc2ccc(C(=N)N)cc2F)nc2cc(C(=O)N(CCC(=O)O)c3ccccc3F)ccc21`, at Prothrombin, 3.71 nM corresponded to half-maximal inhibition (IC50). The IC50 values of the last two compounds are within 1.5-fold of each other.

Turning to `Cn1c(CNc2ccc(C(=N)N)cc2F)nc2cc(C(=O)N(CCC(=O)O)c3ccccc3)ccc21`, the half-maximal inhibitory concentration (IC50) against Prothrombin was determined as 5.86 nM.

Consider `CCn1c(CNc2ccc(C(=N)N)cc2F)nc2cc(C(=O)N(CCC(=O)O)c3ccc(Cl)cc3)ccc21`, for which the IC50 on Prothrombin came out at 13.6 nM.

In turn, `Cn1c(CNc2ccc(C(=N)N)cc2)nc2cc(C(=O)N(CCC(=O)O)c3ccccc3F)ccc21` yielded an IC50 against Prothrombin of 3.23 nM.

In turn, `Cc1ccccc1N(CCC(=O)O)C(=O)c1ccc2c(c1)nc(CNc1ccc(C(=N)N)cc1F)n2C` had an IC50 against Prothrombin of 6.13 nM.

With `CCn1c(CNc2ccc(C(=N)N)cc2F)nc2cc(C(=O)N(CCC(=O)O)c3ccccn3)ccc21`, the midpoint of inhibition at Prothrombin, the IC50, lay at 3.39 nM.

Take `COc1ccc(N(CCC(=O)O)C(=O)c2ccc3c(c2)nc(CNc2ccc(C(=N)N)cc2F)n3C)cc1`: it took 16.3 nM to reach half-maximal inhibition on Prothrombin (IC50).

As for `Cc1ccc(N(CCC(=O)O)C(=O)c2ccc3c(c2)nc(CNc2ccc(C(=N)N)cc2F)n3C)nc1`, the IC50 on Prothrombin turned out to be 24 nM.

`CCn1c(CNc2ccc(C(=N)N)cc2F)nc2cc(C(=O)N(CCC(=O)O)c3cccc(F)c3)ccc21` returned a half-maximal inhibitory concentration (IC50) against Prothrombin of 4.92 nM. This IC50 lies about 4.9-fold lower than the previous one.

For `CCCCCCOC(=O)/N=C(/N)c1ccc(NCc2nc3cc(C(=O)N(CCC(=O)OCC)c4ccccn4)ccc3n2C)c(F)c1`, in the assay with Plasma, the TT was determined as 137.3 s. For the same compound, the entries for the “inhibition (INH)” value in the assay on Rattus norvegicus [1] and in the assay with Rattus norvegicus [3] were 53.8% and 73%, respectively. Also, in the assay on Rattus norvegicus [2], the Activity stood at 1.939 g/L. Moreover, the PT with Rattus norvegicus [4] stood at 12.28 s. The APTT with Rattus norvegicus [5] is recorded as 25.43 s.

Consider `Cn1c(CNc2ccc(C(=N)N)cc2F)nc2cc(C(=O)N(CCC(=O)O)c3ccc(F)cc3)ccc21`, for which, on Prothrombin, the midpoint of inhibition, the IC50, lay at 5.43 nM.

Take `CCn1c(CNc2ccc(C(=N)N)cc2F)nc2cc(C(=O)N(CCC(=O)O)c3ccccc3C)ccc21`: the IC50 on Prothrombin came out at 7.26 nM. This IC50 and that of the compound before are within 1.5-fold of each other.

As for `CCCCCCOC(=O)NC(=N)c1ccc(NCc2nc3cc(C(=O)N(CCC(=O)OCC)c4ccccn4)ccc3n2C)cc1` [DABIGATRAN ETEXILATE], the TT with Plasma was determined as 180 s. Besides, the “inhibition (INH)” value in the assay with Rattus norvegicus [1] came to 92.9%; in the assay on Rattus norvegicus [3] it was 76%. Further, in the assay with Rattus norvegicus [2], the Activity is on record as 1.561 g/L. Besides, the PT with Rattus norvegicus [4] worked out at 57.2 s. Further, in the assay with Rattus norvegicus [5], the APTT is 76.57 s.

Take `CCn1c(CNc2ccc(C(=N)N)cc2F)nc2cc(C(=O)N(CCC(=O)O)c3ccc(OC)cc3)ccc21`: at Prothrombin, the midpoint of inhibition, the IC50, lay at 23.3 nM.

(Values after ChEMBL document CHEMBL3414490 (Eur J Med Chem, 2015).)
